The text below walks through data of ChEMBL document CHEMBL1201862, “PubChem BioAssay data set” (2004).

The structures appear in SMILES notation. Active and inactive are the calls of the source. Some results are limits rather than exact numbers.

One assay has as its target T1, Hexokinase HKDC1 (Homo sapiens, UniProt Q2TB90).
T1 sequence (Q2TB90 whole entry): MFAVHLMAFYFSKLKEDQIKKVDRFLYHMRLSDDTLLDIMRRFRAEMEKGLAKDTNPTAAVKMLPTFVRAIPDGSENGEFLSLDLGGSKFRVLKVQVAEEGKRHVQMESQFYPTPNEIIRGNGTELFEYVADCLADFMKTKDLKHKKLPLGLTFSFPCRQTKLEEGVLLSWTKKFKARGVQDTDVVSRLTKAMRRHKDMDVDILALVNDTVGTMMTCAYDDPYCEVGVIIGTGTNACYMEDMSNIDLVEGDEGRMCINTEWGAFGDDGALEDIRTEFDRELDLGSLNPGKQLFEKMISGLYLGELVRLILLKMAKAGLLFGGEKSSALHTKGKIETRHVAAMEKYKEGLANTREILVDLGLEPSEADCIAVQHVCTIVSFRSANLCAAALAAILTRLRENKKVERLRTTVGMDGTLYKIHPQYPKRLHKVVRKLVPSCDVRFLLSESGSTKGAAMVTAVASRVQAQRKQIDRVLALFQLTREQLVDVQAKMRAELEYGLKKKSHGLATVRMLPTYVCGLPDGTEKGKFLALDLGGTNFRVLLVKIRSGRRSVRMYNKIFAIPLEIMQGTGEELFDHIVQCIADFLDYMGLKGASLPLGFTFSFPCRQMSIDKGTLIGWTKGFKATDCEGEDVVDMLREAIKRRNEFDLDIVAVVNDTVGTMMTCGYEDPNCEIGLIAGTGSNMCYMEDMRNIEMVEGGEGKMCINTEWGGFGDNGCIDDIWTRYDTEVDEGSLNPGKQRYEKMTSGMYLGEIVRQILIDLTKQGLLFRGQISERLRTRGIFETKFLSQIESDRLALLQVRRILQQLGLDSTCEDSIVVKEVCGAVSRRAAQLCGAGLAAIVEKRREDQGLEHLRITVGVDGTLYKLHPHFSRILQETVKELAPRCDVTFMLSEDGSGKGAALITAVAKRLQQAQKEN
Put plainly: activation of HKDC1 glucose phosphorylation – biochemical, W721R variant, dose response (AID 504730). The assay is classed as functional.

The next assay has as its target T2, Hexokinase-1 (Homo sapiens, UniProt P19367).
T2 sequence (P19367 whole entry): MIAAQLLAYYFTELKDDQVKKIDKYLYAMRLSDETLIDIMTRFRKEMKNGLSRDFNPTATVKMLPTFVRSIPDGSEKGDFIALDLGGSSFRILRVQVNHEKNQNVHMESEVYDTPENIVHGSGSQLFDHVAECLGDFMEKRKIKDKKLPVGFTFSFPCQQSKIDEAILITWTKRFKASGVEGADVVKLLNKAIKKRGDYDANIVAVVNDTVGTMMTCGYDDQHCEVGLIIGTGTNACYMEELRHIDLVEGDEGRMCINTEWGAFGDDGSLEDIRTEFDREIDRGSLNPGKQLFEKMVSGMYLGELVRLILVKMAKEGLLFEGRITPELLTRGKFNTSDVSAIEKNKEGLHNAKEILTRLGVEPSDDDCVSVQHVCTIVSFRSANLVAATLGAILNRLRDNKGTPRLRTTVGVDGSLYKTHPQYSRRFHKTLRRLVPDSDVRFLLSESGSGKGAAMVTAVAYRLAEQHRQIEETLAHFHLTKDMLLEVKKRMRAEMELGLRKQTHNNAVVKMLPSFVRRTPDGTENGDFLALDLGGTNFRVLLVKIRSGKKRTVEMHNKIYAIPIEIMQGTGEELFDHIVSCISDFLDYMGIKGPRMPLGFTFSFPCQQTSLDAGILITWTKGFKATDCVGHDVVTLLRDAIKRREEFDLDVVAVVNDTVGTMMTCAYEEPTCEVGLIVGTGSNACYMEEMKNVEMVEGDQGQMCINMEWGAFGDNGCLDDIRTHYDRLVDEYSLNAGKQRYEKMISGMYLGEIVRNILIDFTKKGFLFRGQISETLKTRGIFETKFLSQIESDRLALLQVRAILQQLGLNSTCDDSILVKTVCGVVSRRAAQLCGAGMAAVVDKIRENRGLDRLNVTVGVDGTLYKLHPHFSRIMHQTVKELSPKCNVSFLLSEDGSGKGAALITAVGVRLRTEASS
Briefly: HK1 enzyme activation by HKDC1 hits – biochemical, selectivity assay for HKDC1 activator project, dose response (AID 504762). The assay is classed as functional.

Assay [1] can be described thus: Luminescence Cell-Based Dose Response HTS to Identify Activators of Luciferase Translation or Activity in H4 […] Cells. [Related pubchem assays: 1829 (Project Summary), 1814 (Primary HTS)]. The assay is classed as functional.
Assay [2] is described as follows: Luminescence Cell-Based Dose Retest to Confirm Inhibitors of Cancer Stem Cells. [Related pubchem assays (depositor defined):AID2717, AID2721]. The assay is classed as functional. To be noted: Homo sapiens.
Assay [3] can be described thus: Luminescence Cell-Based Dose Confirmation HTS to Identify Activators of 5'UTR Stem-Loop Driven Alpha-Synuclein mRNA Translation in H4 Neuroglioblastoma Cells. [Related pubchem assays: 1829 (Project Summary), 1814 (Primary HTS)]. The assay is classed as functional.
Assay [4] in a line: THP-1 cell cytotoxicity, dose response, cytotoxicity control for non-replicating M. tuberculosis project (AID 489025). The assay is classed as functional.
For assay [5], the target named is T3, Microphthalmia-associated transcription factor (Homo sapiens, UniProt O75030).
T3 sequence (O75030 whole entry): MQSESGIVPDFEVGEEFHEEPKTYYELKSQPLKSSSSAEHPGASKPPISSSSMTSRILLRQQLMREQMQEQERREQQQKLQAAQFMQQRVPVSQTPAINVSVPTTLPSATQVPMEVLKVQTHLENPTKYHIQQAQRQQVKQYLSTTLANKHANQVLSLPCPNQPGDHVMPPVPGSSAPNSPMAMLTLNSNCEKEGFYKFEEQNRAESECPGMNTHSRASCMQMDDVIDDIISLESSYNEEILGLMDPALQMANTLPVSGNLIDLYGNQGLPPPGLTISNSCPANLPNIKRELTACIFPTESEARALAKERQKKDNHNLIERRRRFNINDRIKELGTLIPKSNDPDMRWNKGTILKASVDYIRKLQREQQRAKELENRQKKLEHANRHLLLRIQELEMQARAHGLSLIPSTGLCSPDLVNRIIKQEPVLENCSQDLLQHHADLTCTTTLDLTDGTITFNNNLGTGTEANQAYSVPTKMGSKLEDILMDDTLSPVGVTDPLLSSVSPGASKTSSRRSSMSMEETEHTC
Put plainly: reducers of TRPM1 reporter luminescence, concentration series – cell-based, SK-MEL-5, cherry-picked, set 3, MITF inhibitor project, dose response (AID 493073).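 Note: SK-MEL-5 melanoma cells with luciferase driven by the MITF target TRPM1 promoter.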 The assay is classed as functional.

A further assay concerns H4. Briefly: Luminescence Cell-Based Dose Response HTS to Identify Activators of 5'UTR Stem-Loop Driven Prion Protein mRNA Translation in H4 Neuroglioblastoma Cells. [Related pubchem assays: 1829 (Project Summary), 1814 (Primary HTS)]. The assay is classed as functional. To be noted: Homo sapiens.
Assay [6] is described as follows: Vero E6 cell cytotoxicity, dose response, cytotoxicity control for non-replicating M. tuberculosis project, secondary assay (AID 492998). To be noted: Vero C1008. The assay is classed as functional, VeroE6.
A short description of a further assay: cells. The assay is classed as functional.
A further assay deals with Nonstructural protein 1 (Influenza A virus, UniProt Q194T2). The assay is classed as functional, Influenza A virus (A/California/07/2009(H1N1)).
Chain of Nonstructural protein 1 (Q194T2 whole entry): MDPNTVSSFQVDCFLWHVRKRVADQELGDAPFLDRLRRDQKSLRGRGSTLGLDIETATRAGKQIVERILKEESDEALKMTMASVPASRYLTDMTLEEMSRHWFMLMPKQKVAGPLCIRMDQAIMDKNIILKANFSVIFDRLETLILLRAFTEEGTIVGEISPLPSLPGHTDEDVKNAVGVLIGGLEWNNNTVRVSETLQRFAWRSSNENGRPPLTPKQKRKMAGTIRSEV
The target of the next assay is Paired box protein Pax-8 (Homo sapiens, UniProt Q06710). Put plainly: PAX8 transcriptional activity inhibition in RMG-I – RMG-I cells, luciferase, cherry-pick, dose response (AID 687027).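 Note: luciferase reporter driven by Pax8 target thyroperoxidase promoter measured by SteadyGlo luminescence.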 The assay is classed as functional, cell-based.
Chain of Paired box protein Pax-8 (Q06710 whole entry): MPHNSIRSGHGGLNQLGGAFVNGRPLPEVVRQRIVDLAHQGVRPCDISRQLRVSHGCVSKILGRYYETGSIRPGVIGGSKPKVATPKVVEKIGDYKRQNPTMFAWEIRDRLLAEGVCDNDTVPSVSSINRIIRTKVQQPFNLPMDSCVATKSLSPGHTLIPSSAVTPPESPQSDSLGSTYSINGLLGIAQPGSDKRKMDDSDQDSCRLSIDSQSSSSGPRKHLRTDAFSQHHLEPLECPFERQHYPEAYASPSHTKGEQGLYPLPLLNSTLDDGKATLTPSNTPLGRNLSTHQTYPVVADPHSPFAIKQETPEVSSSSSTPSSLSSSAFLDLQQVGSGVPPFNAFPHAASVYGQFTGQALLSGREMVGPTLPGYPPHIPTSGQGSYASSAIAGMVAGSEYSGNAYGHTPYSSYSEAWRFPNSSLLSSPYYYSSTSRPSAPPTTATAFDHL
The target of assay [7] is Heat shock protein HSP 90-alpha (Homo sapiens, UniProt P07900). The assay is classed as functional, organism-based.
Another assay deals with Ion channel NompC (Danio rerio, UniProt Q7T1G6). Briefly: Dose response cell-based high-throughput screening assay for agonists of the transient receptor potential channel N1 (TRPN1). [Related pubchem assays (depositor defined):AID1424, AID1448]. The assay is classed as functional.
Chain of Ion channel NompC (Q7T1G6 whole entry): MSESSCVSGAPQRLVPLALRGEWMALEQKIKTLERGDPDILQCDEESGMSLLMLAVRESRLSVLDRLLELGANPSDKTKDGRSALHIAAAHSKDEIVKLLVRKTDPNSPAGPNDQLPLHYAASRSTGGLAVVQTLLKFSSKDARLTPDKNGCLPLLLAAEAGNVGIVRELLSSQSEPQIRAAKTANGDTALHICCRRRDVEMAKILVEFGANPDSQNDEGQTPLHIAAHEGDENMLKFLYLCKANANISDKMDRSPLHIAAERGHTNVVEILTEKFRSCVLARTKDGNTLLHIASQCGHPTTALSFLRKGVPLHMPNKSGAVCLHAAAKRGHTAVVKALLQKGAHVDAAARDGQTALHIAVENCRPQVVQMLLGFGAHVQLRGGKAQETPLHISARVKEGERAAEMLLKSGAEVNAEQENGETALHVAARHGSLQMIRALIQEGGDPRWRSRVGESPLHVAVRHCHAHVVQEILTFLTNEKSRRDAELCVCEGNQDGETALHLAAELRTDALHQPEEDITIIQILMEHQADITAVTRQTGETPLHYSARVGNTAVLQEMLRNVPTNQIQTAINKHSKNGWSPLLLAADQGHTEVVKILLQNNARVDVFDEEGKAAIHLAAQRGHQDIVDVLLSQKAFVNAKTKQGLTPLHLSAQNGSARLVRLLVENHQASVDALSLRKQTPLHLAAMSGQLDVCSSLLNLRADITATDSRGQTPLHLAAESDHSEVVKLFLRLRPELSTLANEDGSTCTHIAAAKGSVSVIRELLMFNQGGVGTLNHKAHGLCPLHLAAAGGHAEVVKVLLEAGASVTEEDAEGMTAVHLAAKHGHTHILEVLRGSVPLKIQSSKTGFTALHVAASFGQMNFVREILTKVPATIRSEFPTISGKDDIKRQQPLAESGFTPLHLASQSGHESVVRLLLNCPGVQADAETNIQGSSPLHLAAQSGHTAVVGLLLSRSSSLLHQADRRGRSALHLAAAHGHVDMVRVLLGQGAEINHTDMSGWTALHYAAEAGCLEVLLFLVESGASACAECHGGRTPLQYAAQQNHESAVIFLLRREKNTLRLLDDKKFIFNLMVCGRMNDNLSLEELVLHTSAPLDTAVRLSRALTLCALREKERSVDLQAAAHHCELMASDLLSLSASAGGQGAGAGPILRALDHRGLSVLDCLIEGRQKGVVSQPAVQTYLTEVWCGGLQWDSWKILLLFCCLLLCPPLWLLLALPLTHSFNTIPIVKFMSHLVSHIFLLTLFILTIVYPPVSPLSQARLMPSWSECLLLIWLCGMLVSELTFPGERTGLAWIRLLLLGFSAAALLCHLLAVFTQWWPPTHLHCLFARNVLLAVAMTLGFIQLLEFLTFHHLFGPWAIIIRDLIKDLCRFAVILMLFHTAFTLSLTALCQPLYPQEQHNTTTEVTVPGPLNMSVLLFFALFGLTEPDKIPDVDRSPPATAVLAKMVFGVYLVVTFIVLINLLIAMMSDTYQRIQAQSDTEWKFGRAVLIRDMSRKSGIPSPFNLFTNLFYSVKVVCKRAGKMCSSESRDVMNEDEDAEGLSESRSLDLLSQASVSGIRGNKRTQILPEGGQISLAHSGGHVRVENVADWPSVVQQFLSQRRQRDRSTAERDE
Another assay has as its target Mucolipin-3 (Homo sapiens, UniProt Q8TDD5). Briefly: Fluorescence counterscreen assay for […] agonists: dose response cell-based high-throughput screening assay to identify agonists of the transient receptor potential channel ML3 (TRPML3). [Related pubchem assays: 1424, 1448 ]. The assay is classed as functional. (In general: Counterscreens check selectivity or assay interference.)

The test system of assay [8] is HEK293. Briefly: NOD2 signaling inhibitors in MDP-stimulated cells, cell-based, uHTS, luminescence (AID 2001). The assay is classed as functional. The note with it: Homo sapiens.
In assay [9] the test system is HEK293. Briefly: inhibition of NOD1-driven NF-kB reporter – cell-based, luminescence, uHTS, primary screen (AID 1578). The assay is classed as functional. The note with it: Homo sapiens.
Assay [10] relates to HEK293. Put plainly: cells. The assay is classed as functional, cell-based. To be noted: Homo sapiens.
The target of a further assay is T4, Protein skinhead-1 (Caenorhabditis elegans, UniProt P34707).
T4 sequence (P34707 whole entry): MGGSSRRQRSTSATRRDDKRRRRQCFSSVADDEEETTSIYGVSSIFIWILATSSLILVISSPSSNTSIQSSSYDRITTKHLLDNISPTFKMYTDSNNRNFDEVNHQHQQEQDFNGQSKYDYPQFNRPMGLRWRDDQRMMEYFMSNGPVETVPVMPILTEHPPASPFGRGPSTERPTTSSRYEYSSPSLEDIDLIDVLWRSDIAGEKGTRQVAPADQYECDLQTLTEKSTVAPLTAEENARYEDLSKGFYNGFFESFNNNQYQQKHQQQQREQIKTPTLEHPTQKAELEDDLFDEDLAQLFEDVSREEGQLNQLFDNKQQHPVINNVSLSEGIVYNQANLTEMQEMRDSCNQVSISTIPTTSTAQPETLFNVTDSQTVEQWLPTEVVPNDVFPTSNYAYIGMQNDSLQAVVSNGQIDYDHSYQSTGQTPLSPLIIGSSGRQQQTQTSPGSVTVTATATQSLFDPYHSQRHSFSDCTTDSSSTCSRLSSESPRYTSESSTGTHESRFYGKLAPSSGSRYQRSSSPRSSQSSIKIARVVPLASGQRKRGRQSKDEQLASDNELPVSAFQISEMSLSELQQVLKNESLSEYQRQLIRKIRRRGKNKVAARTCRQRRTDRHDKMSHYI
The assay is classed as functional.

The target in assay [11] is Glyceraldehyde-3-phosphate dehydrogenase (Homo sapiens, UniProt P04406).
Chain of Glyceraldehyde-3-phosphate dehydrogenase (P04406 whole entry): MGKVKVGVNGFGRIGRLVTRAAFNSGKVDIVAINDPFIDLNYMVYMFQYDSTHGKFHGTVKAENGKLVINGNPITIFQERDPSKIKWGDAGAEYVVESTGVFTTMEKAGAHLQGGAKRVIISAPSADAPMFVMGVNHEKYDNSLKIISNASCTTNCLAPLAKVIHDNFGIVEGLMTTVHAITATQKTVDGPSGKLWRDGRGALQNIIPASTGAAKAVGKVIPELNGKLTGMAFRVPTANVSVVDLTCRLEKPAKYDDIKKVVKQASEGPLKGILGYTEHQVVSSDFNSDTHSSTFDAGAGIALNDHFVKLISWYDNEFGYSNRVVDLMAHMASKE
Assay [12] addresses T5, Alkaline phosphatase, tissue-nonspecific isozyme (Homo sapiens, UniProt P05186).
T5 sequence (P05186 whole entry): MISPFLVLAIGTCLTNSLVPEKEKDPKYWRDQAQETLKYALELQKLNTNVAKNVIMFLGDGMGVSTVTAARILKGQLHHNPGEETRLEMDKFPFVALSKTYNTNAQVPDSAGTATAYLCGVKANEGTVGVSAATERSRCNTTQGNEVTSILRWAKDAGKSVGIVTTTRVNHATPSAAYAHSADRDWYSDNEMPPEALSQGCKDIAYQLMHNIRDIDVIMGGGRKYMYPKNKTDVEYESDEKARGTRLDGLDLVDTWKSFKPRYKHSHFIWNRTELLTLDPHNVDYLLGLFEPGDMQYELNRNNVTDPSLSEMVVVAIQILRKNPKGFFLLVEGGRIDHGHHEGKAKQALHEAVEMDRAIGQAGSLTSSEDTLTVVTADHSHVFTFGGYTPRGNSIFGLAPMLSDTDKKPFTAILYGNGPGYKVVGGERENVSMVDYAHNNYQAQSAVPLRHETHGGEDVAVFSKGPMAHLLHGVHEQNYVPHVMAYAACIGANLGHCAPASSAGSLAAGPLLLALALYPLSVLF
Put plainly: potency against alkaline phosphatase TNAP – biochemical, luminescent, dose response, SAR follow-up (AID 1056).

Chain of Mucolipin-3 (Q8TDD5 whole entry): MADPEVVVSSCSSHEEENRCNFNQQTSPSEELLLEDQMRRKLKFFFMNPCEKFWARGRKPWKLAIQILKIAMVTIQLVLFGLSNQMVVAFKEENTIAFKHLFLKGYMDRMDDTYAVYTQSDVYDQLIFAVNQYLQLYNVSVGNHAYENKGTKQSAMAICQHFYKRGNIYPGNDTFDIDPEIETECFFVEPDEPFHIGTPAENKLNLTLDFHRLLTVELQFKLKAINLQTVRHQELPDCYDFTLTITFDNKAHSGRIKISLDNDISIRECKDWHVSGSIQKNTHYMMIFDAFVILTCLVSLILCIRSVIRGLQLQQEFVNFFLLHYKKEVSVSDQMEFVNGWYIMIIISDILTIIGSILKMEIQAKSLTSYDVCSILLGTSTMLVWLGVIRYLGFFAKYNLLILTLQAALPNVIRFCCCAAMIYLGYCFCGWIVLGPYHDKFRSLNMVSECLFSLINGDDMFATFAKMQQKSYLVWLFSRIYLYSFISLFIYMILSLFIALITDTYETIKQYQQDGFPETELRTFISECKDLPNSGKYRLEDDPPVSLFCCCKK

With `Cc1ccc2oc(=O)c3cnn(CC(=O)N4CCc5ccccc5C4)c3c2c1`, the EC50 is 16 µM (active) at Hexokinase HKDC1 and 36.7 µM (inactive) on Hexokinase-1.
Consider `O=C(Nc1cccc(S(=O)(=O)N2CCCCC2)c1)c1ccc([N+](=O)[O-])o1`, for which the EC50 (in assay [1]; in assay [3]; in the assay with H4) was > 120 µM (not active) each time. Also, the AC50 in assay [2] was 2.44 µM (active); in [5], 11.9 µM (active). Moreover, the CC50 in assay [4] was 8.73 µM (active); in assay [6] it was 4.29 µM (active). Besides, in “cells”, the IC50 is 5.03 µM (active).
Turning to `CC(=NNC(=S)N1CCN(C2CCCCCC2)CC1)c1ccccn1`, the IC50 on Nonstructural protein 1 was 1.66 µM (active). The AC50 on Paired box protein Pax-8 was < 260 nM (active); in [7] it was 3.35 µM (active). The EC50 was 8.14 µM (active) on Hexokinase HKDC1 and > 80 µM (inactive) at Hexokinase-1.
For the molecule `COC(=O)C(/C=N/OCc1ccc([N+](=O)[O-])cc1)NC(=O)c1cccc(Cl)c1` (stereo not drawn), the results for the EC50 at Ion channel NompC and at Mucolipin-3 were > 29.9 µM (inactive) and > 29.9 µM (not active), respectively.
In the case of `Cc1ccc(NC(=O)Nc2nnc(-c3ccncc3)s2)cc1`, the IC50 with HEK293 [8] was 5.87 µM (active); in the assay with HEK293 [10], > 20 µM (inactive). For the same molecule, the EC50 on Ion channel NompC was > 29.9 µM (inactive); in the assay on HEK293 [9] it was 3.38 µM (active); on Mucolipin-3, > 29.9 µM (not active).
For the molecule `C#CCSc1nnc(-c2cccc3ccccc23)o1`, the IC50 is 10.2 µM (active) on Protein skinhead-1 and 9.32 µM (active) in the assay “cells”. Also, the results for the half-maximal cytotoxic concentration (CC50) in [4] and in assay [6] were 20.6 µM (active) and 15.7 µM (active), respectively.
On to `COc1ccc(S(=O)(=O)Nc2ccncn2)cc1OC`, for which the IC50 in assay [11] was > 100 µM (not active); in assay [12] it was > 100 µM (inactive).

The EC50 is the concentration that produces a half-maximal response. Usually AC50 stands for the concentration giving half of the maximal activity seen. For orientation: CC50 means the concentration that lowers cell viability or growth by half. As a reminder, the IC50 is the concentration needed to halve the response being measured.
